Data taken from ChEMBL document CHEMBL1130849, “Novel 1,3-disubstituted-5,10-dihydro-5,10-dioxo-1H-benzo[g] isochromene-3 carboxamides as potent antitumor agents” (Bioorg Med Chem Lett, 1998).

Key:
SK-OV-3 = experiment: Compound was tested for its antitumor activity against SKOV3 human ovarian cancer cell line; type: functional, cell-based
[1] = Selectivity ratio was determined for P-170 glycoprotein mediated multidrug resistant variant SKVLB to the ovarian cancer cell line SK-OV3.; type: functional, Cancer cell lines
HT-29 [2] = experiment: Compound was tested for its antitumor activity against HT-29 colon carcinoma cell line; type: functional, cell-based; conditions: Homo sapiens
HT-29 [3] = experiment: Compound was tested for its antitumor activity against HT-29 colon carcinoma cell line; No activity.; type: functional, cell-based, Homo sapiens

Row | IC50 (SK-OV-3) [nM] | IC50 (HT-29 [2]) [nM] | IC50 (HT-29 [3]) | Compound | Ratio [1]
1 | 50 | 170 |  | COC1OC(C(=O)NCCN2CCCC2)=CC2=C1C(=O)c1ccccc1C2=O (centres undefined) | 10
2 | 1060 | 2760 |  | O=C(NCCCBr)C1=CC2=C(CO1)C(=O)c1ccccc1C2=O | 2.6
3 | 3700 | 6300 |  | CN(C)CCCNC(=O)C1=CC2=C(C(=O)c3ccccc3C2=O)C(O)O1 (centres undefined) | 6.3
4 | 140 |  | Not Active | COC1OC(C(=O)NCCCCN(C)C)=CC2=C1C(=O)c1ccccc1C2=O (centres undefined) | 4.1
5 | 14 | 150 |  | COC1OC(C(=O)NCCCNC(=O)C2=CC3=C(C(=O)c4ccccc4C3=O)C(OC)O2)=CC2=C1C(=O)c1ccccc1C2=O (centres undefined) | 111
6 | 7 | 70 |  | COC1OC(C(=O)NCCCN(C)C)=CC2=C1C(=O)c1ccccc1C2=O (centres undefined) | 9.3
7 | 19500 | 32300 |  | COC1OC(C(=O)NCC[N+](C)(C)C)=CC2=C1C(=O)c1ccccc1C2=O (centres undefined) | 1.5
8 | 280 | 390 |  | CCCC1OC(C(=O)NCCCN(C)C)=CC2=C1C(=O)c1ccccc1C2=O (centres undefined) | 2
9 | 220 |  | Not Active | CN(C)CCCNC(=O)C1=CC2=C(CO1)C(=O)c1ccccc1C2=O | 5.4
10 | 110 | 1180 |  | COC1OC(C(=O)N(C)CCN(C)C)=CC2=C1C(=O)c1ccccc1C2=O (centres undefined) | 5.4
11 | 60 | 1540 |  | COC1OC(C(=O)NCCCO)=CC2=C1C(=O)c1ccccc1C2=O (centres undefined) | 6
12 | 1300 |  | Not Active | COC1OC(C(=O)NCCC[S+](C)C)=CC2=C1C(=O)c1ccccc1C2=O.[Cl-] (centres undefined) | 13
13 | 20 | 340 |  | COc1cccc2c1C(=O)c1c(O)c3c(c(O)c1C2=O)C[C@@](O)(C(=O)CO)C[C@@H]3O[C@H]1C[C@H](N)[C@H](O)[C@H](C)O1 [DOXORUBICIN] | 300
